In the supplement of paper PMC10307832:

Compound: Cc1ccc2nc(NCCN)c3ncc(C)n3c2c1 + Cc1nc(NC(=O)N2CCC[C@H]2C(N)=O)sc1-c1ccnc(C(C)(C)C(F)(F)F)c1 [Alpelisib] (partner 2 µM)
Assay: relative viability (nuclei count vs DMSO), 5 days (fraction); higher = more cells survive
Conditions: first compound 0.04 µM
Method in brief: (§1)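 For relative viability, nuclei counts in treated wells were divided by those in vehicle wells. Lung cancer cell lines had been pin-tool dosed in 1536-well plates the day after seeding and cultured for 5 days, then fixed and stained in one step (final 0.05% Triton X-100, 1% formaldehyde, 1 ug/ml Hoechst) and imaged at 4×. Doses were one drug alone or a fixed anchor-drug dose plus five library-drug doses (not always all listed) in √10 steps, and values are duplicate-plate medians.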

Cell Line	relative viability
NCI-H727	0.54
EBC-1	1.04
NCI-H1703	0.472
NCI-H1993	0.69
SW 1573	0.81
NCI-H838	1.01
LCLC-103H	0.996
NCI-H520	0.882
NCI-H2126	0.738
EMC-BAC-2	0.748
NCI-H2085	1.01
Calu-6	1.05
HCC-366	0.552
NCI-H1666	0.836
NCI-H596	0.56
LK-2	1.07
NCI-H2087	1.07

Cell Line	relative viability
NCI-H358	0.844
NCI-H2170	0.844
H3255	0.77
COR-L23	0.904
COR-L 105	0.977
IA-LM	0.762
LOU-NH91	0.739
NCI-H1793	0.707
NCI-H2405	0.835
HOP-62	0.981
HCC-44	0.776
A549	0.978
HCC-78	0.338
NCI-H1299	1.03
NCI-H1563	0.902
ABC-1	1.15

Same assay, conditions: first compound 0.1265 µM

Cell Line	relative viability
NCI-H727	0.618
EBC-1	0.734
NCI-H1703	0.36
NCI-H1993	0.666
SW 1573	0.667
NCI-H838	0.961
LCLC-103H	0.938
NCI-H520	1.05
NCI-H2126	0.73
EMC-BAC-2	0.722
NCI-H2085	0.943
Calu-6	0.923
HCC-366	0.329
NCI-H1666	0.906
NCI-H596	0.46
LK-2	1.08
NCI-H2087	1.15

Cell Line	relative viability
NCI-H358	0.835
NCI-H2170	0.805
H3255	0.613
COR-L23	0.663
COR-L 105	1.04
IA-LM	0.738
LOU-NH91	0.736
NCI-H1793	0.677
NCI-H2405	0.698
HOP-62	0.946
HCC-44	0.787
A549	0.741
HCC-78	0.337
NCI-H1299	1.1
NCI-H1563	0.962
ABC-1	1.27

Same assay, conditions: first compound 0.4 µM

Cell Line	relative viability
NCI-H727	0.62
EBC-1	0.795
NCI-H1703	0.275
NCI-H1993	0.649
SW 1573	0.871
NCI-H838	0.938
LCLC-103H	0.94
NCI-H520	0.957
NCI-H2126	0.77
EMC-BAC-2	0.72
NCI-H2085	0.961
Calu-6	1.01
HCC-366	0.455
NCI-H1666	1.13
NCI-H596	0.446
LK-2	0.935
NCI-H2087	0.998

Cell Line	relative viability
NCI-H358	0.902
NCI-H2170	0.801
H3255	0.705
COR-L23	0.916
COR-L 105	1.27
IA-LM	0.682
LOU-NH91	0.735
NCI-H1793	0.637
NCI-H2405	0.801
HOP-62	0.942
HCC-44	0.786
A549	0.722
HCC-78	0.288
NCI-H1299	1.05
NCI-H1563	1.07
ABC-1	1.18

Same assay, conditions: first compound 1.265 µM

Cell Line	relative viability
NCI-H727	0.599
EBC-1	0.643
NCI-H1703	0.388
NCI-H1993	0.625
SW 1573	0.572
NCI-H838	0.883
LCLC-103H	0.884
NCI-H520	0.781
NCI-H2126	0.719
EMC-BAC-2	0.793
NCI-H2085	1.06
Calu-6	1.04
HCC-366	0.433
NCI-H1666	0.945
NCI-H596	0.491
LK-2	1.05
NCI-H2087	0.963

Cell Line	relative viability
NCI-H358	0.952
NCI-H2170	0.805
H3255	0.659
COR-L23	0.809
COR-L 105	1.13
IA-LM	0.913
LOU-NH91	0.674
NCI-H1793	0.654
NCI-H2405	0.728
HOP-62	0.667
HCC-44	0.711
A549	1.01
HCC-78	0.309
NCI-H1299	1.08
NCI-H1563	1.13
ABC-1	1.15

Same assay, conditions: first compound 4 µM

Cell Line	relative viability
NCI-H727	0.471
EBC-1	0.617
NCI-H1703	0.348
NCI-H1993	0.693
SW 1573	0.676
NCI-H838	0.899
LCLC-103H	0.991
NCI-H520	1.03
NCI-H2126	0.782
EMC-BAC-2	0.719
NCI-H2085	1.11
Calu-6	0.719
HCC-366	0.276
NCI-H1666	0.613
NCI-H596	0.452
LK-2	0.864
NCI-H2087	0.998

Cell Line	relative viability
NCI-H358	0.626
NCI-H2170	0.67
H3255	0.593
COR-L23	0.495
COR-L 105	0.75
IA-LM	0.804
LOU-NH91	0.696
NCI-H1793	0.693
NCI-H2405	0.696
HOP-62	0.975
HCC-44	0.769
A549	0.611
HCC-78	0.308
NCI-H1299	0.993
NCI-H1563	0.905
ABC-1	0.742

Compound: O=C(/C=C/c1ccccc1)NC(NC(=S)Nc1cccc2cccnc12)C(Cl)(Cl)Cl [Salubrinal] + CC(=O)Nc1cccc(-n2c(=O)n(C3CC3)c(=O)c3c(Nc4ccc(I)cc4F)n(C)c(=O)c(C)c32)c1 [Trametinib] (partner 0.02 µM)
Assay: as above
Conditions: first compound 0.08 µM
Method in brief: as §1

Cell Line	relative viability
NCI-H522	0.631
NCI-H2342	0.966
NCI-H727	0.375
NCI-H1650	0.691
NCI-H1993	0.506
SW 1573	0.789
NCI-H838	0.657
LCLC-103H	0.737
NCI-H520	0.853
NCI-H2126	0.592
EMC-BAC-2	0.948
NCI-H2085	0.632
HCC-366	0.509
NCI-H1666	0.802
NCI-H596	0.851
LK-2	0.918

Cell Line	relative viability
NCI-H2087	0.201
NCI-H358	0.145
NCI-H2170	1.1
H3255	0.744
COR-L23	0.7
COR-L 105	0.466
LOU-NH91	0.728
ChaGo-K-1	0.968
NCI-H1793	0.484
NCI-H2405	0.653
HOP-62	0.438
HCC-44	1.19
SW 900	0.69
HCC-78	0.869
NCI-H1648	0.657

Same assay, conditions: first compound 0.253 µM

Cell Line	relative viability
NCI-H522	0.802
NCI-H2342	0.806
NCI-H727	0.375
NCI-H1650	0.5
NCI-H1993	0.614
SW 1573	0.615
NCI-H838	0.678
LCLC-103H	0.682
NCI-H520	0.676
NCI-H2126	0.579
EMC-BAC-2	0.878
NCI-H2085	0.539
NCI-H1666	0.869
NCI-H596	0.745
LK-2	0.812
NCI-H2087	0.191
NCI-H358	0.139
NCI-H2170	0.658
H3255	0.55
COR-L23	0.734
COR-L 105	0.559
LOU-NH91	0.822
ChaGo-K-1	0.858
NCI-H1793	0.437
NCI-H2405	0.625
HOP-62	0.369
HCC-44	1.11
SW 900	0.765
HCC-78	0.692
NCI-H1648	0.456

Same assay, conditions: first compound 0.8 µM

Cell Line	relative viability
NCI-H522	0.639
NCI-H2342	0.758
NCI-H727	0.383
NCI-H1650	0.592
NCI-H1993	0.503
SW 1573	0.588
NCI-H838	0.534
LCLC-103H	0.691
NCI-H520	0.843
NCI-H2126	0.544
EMC-BAC-2	0.937
NCI-H2085	0.617
HCC-366	0.379
NCI-H1666	0.847
NCI-H596	0.747
LK-2	0.819

Cell Line	relative viability
NCI-H2087	0.181
NCI-H358	0.135
NCI-H2170	0.979
H3255	0.832
COR-L23	0.736
COR-L 105	0.407
LOU-NH91	0.788
ChaGo-K-1	0.882
NCI-H1793	0.402
NCI-H2405	0.594
HOP-62	0.382
HCC-44	1.16
SW 900	0.7
HCC-78	0.652
NCI-H1648	0.662

Same assay, conditions: first compound 2.53 µM

Cell Line	relative viability
NCI-H522	0.859
NCI-H2342	0.775
NCI-H727	0.372
NCI-H1650	0.517
SW 1573	0.485
NCI-H838	0.518
LCLC-103H	0.738
NCI-H520	0.633
NCI-H2126	0.576
EMC-BAC-2	0.906
NCI-H2085	0.52
HCC-366	0.306
NCI-H1666	0.903
NCI-H596	0.817
LK-2	0.722
NCI-H2087	0.186
NCI-H358	0.143
NCI-H2170	0.941
H3255	0.582
COR-L23	0.581
COR-L 105	0.477
LOU-NH91	0.824
ChaGo-K-1	0.905
NCI-H1793	0.42
NCI-H2405	0.605
HOP-62	0.343
HCC-44	1.09
SW 900	0.774
HCC-78	0.791
NCI-H1648	0.492

Same assay, conditions: first compound 8 µM

Cell Line	relative viability
NCI-H522	0.709
NCI-H2342	0.88
NCI-H727	0.403
NCI-H1650	0.54
NCI-H1993	0.616
SW 1573	0.469
NCI-H838	0.552
LCLC-103H	0.673
NCI-H520	0.685
NCI-H2126	0.513
EMC-BAC-2	0.973
NCI-H2085	0.487
HCC-366	0.233
NCI-H1666	0.783
NCI-H596	0.675
LK-2	0.744
NCI-H2087	0.207
NCI-H358	0.136
NCI-H2170	0.925
H3255	0.597
COR-L23	0.518
COR-L 105	0.449
LOU-NH91	0.757
ChaGo-K-1	0.802
NCI-H1793	0.304
NCI-H2405	0.557
HOP-62	0.338
HCC-44	1.04
